Assay in all cases: NCI tumour cell line growth inhibition, 48 h
The subject of experiment [1] is TK-10 renal.
For experiment [2], the system named is IGROV1 ovarian.
The subject of experiment [3] is MALME-3M melanoma.
Experiment [4] relates to HOP-92 NSCLC.
For experiment [5], the system named is SK-OV-3 ovarian.
The subject of experiment [6] is SK-MEL-5 melanoma.
Experiment [7] deals with NCI-H460 lung.
Experiment [8] has as its system SF-295 CNS.
Experiment [9] concerns HCT-116 colon.
Experiment [10] has as its system CCRF-CEM leukemia.
Experiment [11] deals with NCI-H23 lung.
The subject of experiment [12] is EKVX NSCLC.
Experiment [13] has as its system SR leukemia.
The subject of experiment [14] is SK-MEL-28 melanoma.
For experiment [15], the system named is A549 NSCLC.
The test system of experiment [16] is RXF 393 renal.
In experiment [17] the test system is T-47D breast.
In experiment [18] the test system is MDA-MB-435.

In PubChem BioAssay (NCI) one finds TGI data, which are given here for nine compounds.

SMILES strings stand for the structures.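 A five-concentration, 48-hour dose response in 96-well plates underlies each endpoint, interpolated linearly between surrounding concentrations. The concentration for full growth arrest is given as TGI.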

In the case of `NC(=O)N/N=C(/Cc1nc2ccc(C(=O)c3ccccc3)cc2[nH]c1=O)C(=O)Nc1ccc(C(F)(F)F)cc1[N+](=O)[O-]`, the TGI in experiment [1], in [2], in experiment [3], in [4], in experiment [5] and in experiment [6] was more than 100 µM in each case. In addition, the TGI in [7], in experiment [8], in experiment [9], in experiment [10], in [11] and in [12] was more than 100 µM throughout. The TGI in experiment [13], in [14] and in experiment [15] was more than 100 µM throughout.

`CCOC(=O)[C@H]1Nc2ccc([N+](=O)[O-])cc2C2c3ccccc3CC21` (stereo partly drawn): the TGI was 77.3 µM in [1]; more than 100 µM in [2]; 68 µM in experiment [3]; 30.7 µM in experiment [6]; 44.7 µM in [7]; 18.3 µM in experiment [16]. The TGI in experiment [8] was 31.2 µM; in experiment [9], 37.9 µM; in [10] it was 43.8 µM; in experiment [11], 73.6 µM; in [13] it was more than 100 µM; in experiment [14], 31.9 µM. Besides, the TGI in experiment [15] is 91.2 µM.

On to `COc1ccc2c(c1)CC1c3c(ccc(OC)c3O)CC2N1C` (stereo not drawn), for which the TGI in experiment [1] is more than 100 µM; in experiment [2], more than 100 µM; in experiment [3] it was 29.4 µM; in experiment [4], 70.9 µM; in experiment [5] it was more than 100 µM; in [6] it was 32.7 µM. In addition, the TGI was 38.8 µM in [7]; 43.6 µM in experiment [16]; 47.1 µM in experiment [8]; 47.3 µM in [9]; 80.6 µM in experiment [10]; more than 100 µM in [11]. In addition, the TGI in experiment [12] is more than 84.3 µM; in experiment [13], 45.4 µM; in experiment [14] it was 43.8 µM; in experiment [15], more than 100 µM.

`CC(=O)C(CN(C)C)C(c1ccccc1)c1c(O)c2ccccc2oc1=O` (stereo not drawn): the TGI in experiment [1], in experiment [2], in [3], in experiment [4], in [5] and in [6] was more than 100 µM each time. Besides, the TGI in experiment [7], in experiment [16], in experiment [8], in [9], in experiment [10] and in experiment [11] was more than 100 µM in each case. Also, the TGI in experiment [12], in experiment [13], in [14] and in experiment [15] was more than 100 µM throughout.

On to `CN(C)S(=O)(=O)n1cnc(CO)c1`, for which the TGI in experiment [1], in experiment [2], in experiment [3], in experiment [4], in [5] and in experiment [6] was more than 100 µM each time. The TGI in experiment [7], in experiment [16], in experiment [8], in experiment [9], in [17] and in experiment [11] was more than 100 µM in each case. Also, the TGI in [12], in experiment [14], in experiment [15] and in experiment [18] was more than 100 µM each time.

Regarding `COC(=O)C1=CN(C2CCCCC2)C2(c3ccccc3)c3ccccc3C(=O)OC(=O)C12` (stereo not drawn), the TGI in experiment [1], in [2], in experiment [3], in experiment [4], in experiment [5] and in experiment [6] was more than 100 µM in each case. In addition, the TGI in experiment [7] was more than 100 µM; in experiment [16] it was 97.2 µM; in experiment [8], more than 100 µM; in [9], more than 100 µM; in [10] it was more than 100 µM; in [11], more than 100 µM. Besides, the TGI in [12], in [14], in experiment [15] and in experiment [18] was more than 100 µM in each case.

For `CCCCN[C@H]1C2C3CC4C5CC(C42)C1(C)C53` (stereo partly drawn), the TGI in [1], in experiment [2], in experiment [3], in experiment [4], in experiment [5] and in experiment [6] was more than 100 µM in each case. The TGI in [7], in [16], in experiment [8], in [9], in [10] and in [12] was more than 100 µM in each case. The TGI in [13], in experiment [14] and in [15] was more than 100 µM in each case.

With `O=S(=O)(c1ccccc1)n1cc(C[P+](c2ccccc2)(c2ccccc2)c2ccccc2)c2ccccc21`, the TGI turned out to be 16.9 µM in [1]; 16 µM in [2]; 14.7 µM in experiment [3]; 5.53 µM in experiment [4]; 7.86 µM in experiment [5]; 3.29 µM in experiment [6]. In addition, the TGI came out at 15.3 µM in experiment [7]; 20.3 µM in experiment [16]; 24.3 µM in experiment [8]; 15.2 µM in experiment [9]; 12.8 µM in experiment [10]; 17.8 µM in [11]. The TGI in [12] was 15.8 µM; in experiment [13], 31.6 µM; in [14], 14.2 µM; in experiment [15] it was 24.8 µM.

In the case of `Cc1cc(=O)[nH]c(NNC(C#N)c2c(O)ccc3ccccc23)n1` (stereo not drawn), the TGI in [1] stood at 65.8 µM; in experiment [2], 23.4 µM; in experiment [3], 26.8 µM; in experiment [4], 79.6 µM; in experiment [5] it was 52.6 µM; in [6], 13 µM. Moreover, the TGI in [7] is 17.2 µM; in experiment [16] it was 23.6 µM; in experiment [8] it was more than 100 µM; in [9], 17.1 µM; in experiment [10] it was more than 100 µM; in experiment [11] it was 20.5 µM. Moreover, the TGI in experiment [13] was 26.3 µM; in [14], 68.3 µM; in [15], 18.5 µM.
